Results taken from PubChem BioAssay AID330 (DTP/NCI, 2004).
“And” between values parts separate entries of the source, which are not always exact repeats. Identical values can stand only once. Toxic doses and inconclusive results are not listed. Peptide text beside a SMILES is read from it. * marks the point of attachment. Trt = c1ccc(C(c2ccccc2)(c2ccccc2)*)cc1; Cbz = O=C(OCc1ccccc1)*; Bz = O=C(c1ccccc1)*

Tested on: P388 leukemia ip, CD2F1 mice, survival T/C
Assay: NCI In Vivo Anticancer Drug Screen. Data for tumor model P388 Leukemia (intraperitoneal) in CD2F1 (CDF1) mice
Settings: endpoint: median survival time, higher = longer survival
Outline: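 Mice carrying the transplanted tumor received test compound or vehicle. Survival was recorded in each group, and the value is the treated-group measurement divided by that of the vehicle-treated control group.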

[1] = dose: 50.0 mg/kg/injection, schedule: Q01DX009 (ip), vehicle: Klucel (hydroxypropylcellulose) (HPC)
[2] = dose: 100.0 mg/kg/injection, schedule: Q01DX009 (ip), vehicle: Klucel (hydroxypropylcellulose) (HPC)
[3] = dose: 200.0 mg/kg/injection, schedule: Q01DX009 (ip), vehicle: Klucel (hydroxypropylcellulose) (HPC)
[4] = dose: 60.0 mg/kg/injection, schedule: Q01DX005 (ip), vehicle: Klucel (hydroxypropylcellulose) (HPC)
[5] = dose: 100.0 mg/kg/injection, schedule: Q01DX009 (ip), vehicle: saline with Tween-80
[6] = dose: 50.0 mg/kg/injection, schedule: Q01DX005 (ip), vehicle: saline with Tween-80
[7] = dose: 100.0 mg/kg/injection, schedule: Q01DX005 (ip), vehicle: saline with Tween-80

CCOC(=O)CC1C(=O)N(c2nc(-c3ccc(Br)cc3)cs2)N=C1C (stereo not drawn)
T/C [1]: 96 % of control | T/C [2]: 101 % of control | T/C [3]: 103 % of control

COc1ccc(S(=O)(=O)O)cc1-n1nc(C(=O)Nc2ccccc2)n[n+]1-c1cc(S(=O)(=O)[O-])ccc1OC
T/C (dose: 100.0 mg/kg/injection, schedule: Q01DX001 (ip), vehicle: suspension in saline): 100 % of control | T/C (dose: 200.0 mg/kg/injection, schedule: Q01DX001 (ip), vehicle: suspension in saline): 100 % of control | T/C (dose: 400.0 mg/kg/injection, schedule: Q01DX001 (ip), vehicle: suspension in saline): 103 % of control

O
T/C (dose: 0.01 % in 0.5 ml injection vol, schedule: Q01DX009 (ip), vehicle: water): 92 % of control | T/C (dose: 0.02 % in 0.5 ml injection vol, schedule: Q01DX009 (ip), vehicle: water): 100 % of control and 95 % of control | T/C (dose: 0.04 % in 0.5 ml injection vol, schedule: Q01DX009 (ip), vehicle: water): 105 % of control | T/C (dose: 0.08 % in 0.5 ml injection vol, schedule: Q01DX009 (ip), vehicle: water): 100 % of control | T/C (dose: 100.0 mg/kg/injection, schedule: Q01DX009 (ip), vehicle: acetone): 95 % of control | T/C (dose: 200.0 mg/kg/injection, schedule: Q01DX009 (ip), vehicle: acetone): 90 % of control | T/C (dose: 400.0 mg/kg/injection, schedule: Q01DX009 (ip), vehicle: acetone): 100 % of control | T/C (dose: 1:0.5 dilution, schedule: Q01DX005 (ip), vehicle: none): 112 % of control | T/C (dose: 1:1.0 dilution, schedule: Q01DX005 (ip), vehicle: none): 100 % of control | T/C (dose: 1:2.0 dilution, schedule: Q01DX005 (ip), vehicle: none): 114 % of control

CC1=C(C)Cn2c(=O)c3cc4ccccc4cc3c(=O)n2C1
T/C [1]: 90 % of control | T/C [2]: 90 % of control

O=C(Cc1ccccn1)c1ccccc1
T/C [2]: 109 % of control | T/C [3]: 108 % of control | T/C (dose: 400.0 mg/kg/injection, schedule: Q01DX009 (ip), vehicle: Klucel (hydroxypropylcellulose) (HPC)): 110 % of control

CC1CC(C)CC(C)C(O)/C(C#N)=C/C=C/CC(C2CCCC2C(=O)O)OC(=O)CC(O)C(C)C1 (stereo not drawn)
T/C (dose: 0.5 mg/kg/injection, schedule: Q01DX009 (ip), vehicle: Klucel (hydroxypropylcellulose) (HPC)): 163 % of control and 169 % of control | T/C (dose: 0.78 mg/kg/injection, schedule: Q01DX009 (ip), vehicle: Klucel (hydroxypropylcellulose) (HPC)): 150 % of control | T/C (dose: 1.0 mg/kg/injection, schedule: Q01DX009 (ip), vehicle: Klucel (hydroxypropylcellulose) (HPC)): 151 % of control and 152 % of control | T/C (dose: 1.56 mg/kg/injection, schedule: Q01DX009 (ip), vehicle: Klucel (hydroxypropylcellulose) (HPC)): 151 % of control | T/C (dose: 3.13 mg/kg/injection, schedule: Q01DX009 (ip), vehicle: Klucel (hydroxypropylcellulose) (HPC)): 153 % of control

CNc1cc(C)c2ccc(N(C)C)cc2n1
T/C (dose: 7.5 mg/kg/injection, schedule: Q01DX005 (ip), vehicle: Klucel (hydroxypropylcellulose) (HPC)): 98 % of control | T/C (dose: 15.0 mg/kg/injection, schedule: Q01DX005 (ip), vehicle: Klucel (hydroxypropylcellulose) (HPC)): 102 % of control | T/C (dose: 30.0 mg/kg/injection, schedule: Q01DX005 (ip), vehicle: Klucel (hydroxypropylcellulose) (HPC)): 101 % of control | T/C [4]: 93 % of control

COC(=O)C(CSC(=O)c1ccccc1)NC(=O)CNC(=O)CNC(=O)C(CCCCNC(=O)OCc1ccccc1)NC(=O)CNC(=O)C(CSC(c1ccccc1)(c1ccccc1)c1ccccc1)NC(=O)OCc1ccccc1 (stereo not drawn) (Cbz-C(Trt)GK(Cbz)GGC(Bz)-OMe; configuration not given here)
T/C [4]: 97 % of control | T/C (dose: 120.0 mg/kg/injection, schedule: Q01DX005 (ip), vehicle: Klucel (hydroxypropylcellulose) (HPC)): 97 % of control | T/C (dose: 240.0 mg/kg/injection, schedule: Q01DX005 (ip), vehicle: Klucel (hydroxypropylcellulose) (HPC)): 88 % of control

CCOC(=O)c1c(N)ssc1=S
T/C (dose: 50.0 mg/kg/injection, schedule: Q01DX009 (ip), vehicle: saline): 100 % of control | T/C (dose: 100.0 mg/kg/injection, schedule: Q01DX009 (ip), vehicle: saline): 97 % of control | T/C (dose: 200.0 mg/kg/injection, schedule: Q01DX009 (ip), vehicle: saline): 105 % of control

ClCOc1cc(Cl)c(OCCl)cc1Cl
T/C [1]: 116 % of control | T/C [2]: 113 % of control | T/C [3]: 101 % of control

COc1cc2c(cc1O)CCCC(C)(C)C2=O
T/C [5]: 95 % of control | T/C (dose: 200.0 mg/kg/injection, schedule: Q01DX009 (ip), vehicle: saline with Tween-80): 96 % of control

O=C(O)c1ccc(C(Cl)(Cl)Cl)cc1
T/C (dose: 100.0 mg/kg/injection, schedule: Q04DX003 (ip), vehicle: saline sonified): 113 % of control | T/C (dose: 200.0 mg/kg/injection, schedule: Q04DX003 (ip), vehicle: saline sonified): 113 % of control | T/C (dose: 400.0 mg/kg/injection, schedule: Q04DX003 (ip), vehicle: saline sonified): 113 % of control

Cc1cc2c(C(C)C)c(O)c(O)c(C=NCCO)c2c(O)c1-c1c(C)cc2c(C(C)C)c(O)c(O)c(C=NCCO)c2c1O
T/C [6]: 113 % of control | T/C (dose: 75.0 mg/kg/injection, schedule: Q01DX005 (ip), vehicle: saline with Tween-80): 120 % of control | T/C [7]: 120 % of control

O=S(=O)(O)c1cc(N=C=S)ccc1/C=C/c1ccc(N=C=S)cc1S(=O)(=O)O
T/C (dose: 25.0 mg/kg/injection, schedule: Q01DX005 (ip), vehicle: saline): 108 % of control and 110 % of control

O=C1c2c(O)cc(O)cc2OC(c2ccc(O)cc2O)C1O (stereo not drawn)
T/C (dose: 30.3 mg/kg/injection, schedule: Q01DX009 (ip), vehicle: saline): 98 % of control | T/C (dose: 60.7 mg/kg/injection, schedule: Q01DX009 (ip), vehicle: saline): 100 % of control | T/C (dose: 121.4 mg/kg/injection, schedule: Q01DX009 (ip), vehicle: saline): 103 % of control

CCCCCCCCCCCCCCCC(O)S(=O)(=O)O (stereo not drawn)
T/C (dose: 25.0 mg/kg/injection, schedule: Q01DX009 (ip), vehicle: saline with Tween-80): 100 % of control | T/C (dose: 50.0 mg/kg/injection, schedule: Q01DX009 (ip), vehicle: saline with Tween-80): 100 % of control | T/C [5]: 100 % of control

O=C(O)C1(Br)CC2(C1)CC(Br)(C(=O)O)C2 (stereo not drawn)
T/C (dose: 100.0 mg/kg/injection, schedule: Q04DX002 (ip), vehicle: other): 94 % of control | T/C (dose: 200.0 mg/kg/injection, schedule: Q04DX002 (ip), vehicle: other): 91 % of control | T/C (dose: 400.0 mg/kg/injection, schedule: Q04DX002 (ip), vehicle: other): 103 % of control

NC(=O)c1ccc(=S)[nH]c1
T/C (dose: 12.5 mg/kg/injection, schedule: Q01DX009 (ip), vehicle: Klucel (hydroxypropylcellulose) (HPC)): 106 % of control | T/C (dose: 25.0 mg/kg/injection, schedule: Q01DX009 (ip), vehicle: Klucel (hydroxypropylcellulose) (HPC)): 103 % of control | T/C [1]: 97 % of control | T/C [2]: 103 % of control

CC(C)=C1N(C(C)C)C(=C(C)C)N(C(C)C)C(=C(C)C)N1C(C)C
T/C (dose: 50.0 mg/kg/injection, schedule: Q01DX005 (ip), vehicle: Klucel (hydroxypropylcellulose) (HPC)): 96 % of control | T/C (dose: 100.0 mg/kg/injection, schedule: Q01DX005 (ip), vehicle: Klucel (hydroxypropylcellulose) (HPC)): 100 % of control | T/C (dose: 200.0 mg/kg/injection, schedule: Q01DX005 (ip), vehicle: Klucel (hydroxypropylcellulose) (HPC)): 89 % of control

CN(C)c1ccc([N+]([O-])=NC#N)cc1
T/C (dose: 25.0 mg/kg/injection, schedule: Q04DX003 (ip), vehicle: saline with Tween-80): 93 % of control | T/C (dose: 50.0 mg/kg/injection, schedule: Q04DX003 (ip), vehicle: saline with Tween-80): 95 % of control | T/C (dose: 100.0 mg/kg/injection, schedule: Q04DX003 (ip), vehicle: saline with Tween-80): 92 % of control

C/C(CCn1[nH]c(=O)ccc1=O)=N\NS(=O)(=O)c1ccc(C)cc1
T/C (dose: 60.0 mg/kg/injection, schedule: Q01DX005 (ip), vehicle: saline with Tween-80): 103 % of control | T/C (dose: 120.0 mg/kg/injection, schedule: Q01DX005 (ip), vehicle: saline with Tween-80): 109 % of control | T/C (dose: 134.0 mg/kg/injection, schedule: Q01DX005 (ip), vehicle: saline with Tween-80): 105 % of control

NNc1nnnc2c1sc1ccccc12
T/C (dose: 100.0 mg/kg/injection, schedule: Q01DX001 (ip), vehicle: saline with Tween-80): 89 % of control | T/C (dose: 400.0 mg/kg/injection, schedule: Q01DX001 (ip), vehicle: saline with Tween-80): 93 % of control

C=COS(=O)O
T/C (dose: 3.12 mg/kg/injection, schedule: Q01DX009 (ip), vehicle: saline): 104 % of control | T/C (dose: 6.25 mg/kg/injection, schedule: Q01DX009 (ip), vehicle: saline): 104 % of control | T/C (dose: 12.5 mg/kg/injection, schedule: Q01DX009 (ip), vehicle: saline): 105 % of control

Cc1cc(C)nc(NS(=O)(=O)c2ccc(N=c3c4ccccc4n(-c4ccccc4)c4ccccc34)cc2)n1
T/C [6]: 97 % of control | T/C [7]: 109 % of control | T/C (dose: 200.0 mg/kg/injection, schedule: Q01DX005 (ip), vehicle: saline with Tween-80): 90 % of control
